Experimental data: ChEMBL document CHEMBL1201862, “PubChem BioAssay data set” (2004)
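96-well plates; 48 h exposure; 5 concentrations. Endpoints by linear interpolation between flanking doses. Not reached: highest tested concentration assigned. Here, GI50 denotes the concentration required for 50% inhibition of growth.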 Active and inactive are the calls of the source. No stated cut-off is given here; in the data, active = GI50 up to about 1.1 µM and inactive = higher.

How the values were obtained:
Test in all cases: inhibition of tumour cell growth, NCI panel, 48 h
[1] = test system: IGROV-1
[2] = test system: SNB-75
[3] = test system: OVCAR-5
[4] = test system: K562
[5] = test system: UO-31
[6] = test system: TK-10
[7] = test system: HT-29
[8] = test system: SW-620
[9] = test system: NCI-H23
[10] = test system: OVCAR-3
[11] = test system: A498
[12] = test system: CCRF-CEM
[13] = test system: SF-268
[14] = test system: RXF 393
[15] = test system: ACHN
[16] = test system: HCT-116
[17] = test system: U-251
[18] = test system: HOP-92

Measured: GI50

Cc1cccc(NC(=O)CSc2nnc(Cc3ccccc3)o2)c1
inactive: [1] > 100 µM | [2] 63.8 µM | [3] > 100 µM | [4] > 100 µM | [5] > 100 µM | [6] > 100 µM | [7] > 100 µM | [8] > 100 µM | [9] > 100 µM | [10] > 100 µM | [11] > 100 µM | [12] > 100 µM | [13] > 100 µM | [14] > 100 µM | [15] > 100 µM | [16] > 100 µM | [17] > 100 µM

CC1C=C(OC(=O)c2ccccc2)C(=O)C(n2cc(F)c(=O)[nH]c2=O)O1 (configuration not stated)
inactive: [1] > 100 µM | [2] > 100 µM | [3] > 100 µM | [4] 76 µM | [5] 87.7 µM | [6] > 100 µM | [7] 18.9 µM | [8] > 100 µM | [9] 53.6 µM | [10] > 100 µM | [11] > 100 µM | [12] 45.1 µM | [13] > 100 µM | [15] 59.7 µM | [16] 38.5 µM | [17] 97.3 µM | [18] > 100 µM

O=[N+]([O-])C(=C1c2ccccc2-c2ccccc21)[N+](=O)[O-]
inactive: [1] 61.5 µM | [3] 91.2 µM | [4] 43.8 µM | [5] 52.4 µM | [6] > 100 µM | [7] 50.6 µM | [8] 64.7 µM | [9] > 10 µM | [10] > 100 µM | [11] 57.3 µM | [12] 47.6 µM | [13] 20.9 µM | [14] > 100 µM | [15] 62.8 µM | [16] 38 µM | [17] > 100 µM

N#CCCN(c1ccc(/C=C2\N=C(c3ccc(Cl)cc3)OC2=O)cc1)S(=O)(=O)c1ccccc1
inactive: [1] > 100 µM | [2] 76 µM | [3] > 100 µM | [4] > 100 µM | [5] > 100 µM | [6] > 100 µM | [7] > 100 µM | [8] > 100 µM | [9] > 100 µM | [10] > 100 µM | [11] > 100 µM | [13] > 100 µM | [15] > 100 µM | [16] > 100 µM | [17] > 100 µM

Cc1cccc(C(C)(C)C)c1NC(=O)CCc1n[nH]c(=S)o1
inactive: [1] > 100 µM | [2] > 100 µM | [3] > 100 µM | [4] 43.2 µM | [5] > 100 µM | [6] > 100 µM | [7] > 100 µM | [8] 15.9 µM | [9] > 100 µM | [10] > 100 µM | [11] > 100 µM | [12] > 100 µM | [13] > 100 µM | [15] > 100 µM | [16] 17.6 µM | [17] > 100 µM | [18] > 100 µM

COc1ccc(NC(=O)CC2S/C(=N\c3ccccc3C)NC2=O)c([N+](=O)[O-])c1 (configuration not stated)
inactive: [1] > 100 µM | [2] > 100 µM | [3] > 100 µM | [4] > 100 µM | [5] > 100 µM | [6] > 100 µM | [7] > 100 µM | [8] > 100 µM | [9] > 100 µM | [10] > 100 µM | [13] > 100 µM | [15] > 100 µM | [16] > 100 µM | [17] > 100 µM | [18] > 100 µM

CN(CCCN1C(=O)c2cccc3cc([N+](=O)[O-])cc(c23)C1=O)CCN(C)CCCN1C(=O)c2cccc3cc([N+](=O)[O-])cc(c23)C1=O
inactive: [1] 16 µM | [2] 20.4 µM | [3] > 39.3 µM | [4] 4.94 µM | [6] > 39.3 µM | [7] 7.67 µM | [8] 2.48 µM | [9] > 39.3 µM | [10] > 39.3 µM | [11] > 39.3 µM | [12] 6.34 µM | [13] 29 µM | [14] 33 µM | [15] 17.9 µM | [16] 11.7 µM | [17] 15.2 µM

CCOC(=O)C12CCCC1(O)N(NC(=O)OC(C)(C)C)C(C)=C2C(=O)OC (configuration not stated)
inactive: [1] > 100 µM | [3] > 100 µM | [4] > 100 µM | [5] > 100 µM | [6] > 100 µM | [7] > 100 µM | [8] > 100 µM | [9] > 100 µM | [10] > 100 µM | [11] > 100 µM | [12] > 100 µM | [13] > 100 µM | [15] > 100 µM | [16] > 100 µM | [17] > 100 µM | [18] > 100 µM

Cn1c(=O)oc2cc(C3CCC(=O)N3Cc3csc(-c4ccccc4)n3)ccc21 (configuration not stated)
inactive: [1] > 100 µM | [2] 25.3 µM | [3] > 100 µM | [4] 64.6 µM | [5] 52.5 µM | [6] > 100 µM | [7] 79.1 µM | [8] > 100 µM | [9] > 100 µM | [12] > 100 µM | [13] > 100 µM | [14] 39.9 µM | [15] > 100 µM | [16] > 100 µM | [17] > 100 µM

O=C(Cc1nc2ccccc2s1)C(=O)Nc1ccc(Cl)cc1
inactive: [1] > 100 µM | [2] > 100 µM | [3] > 100 µM | [4] > 100 µM | [5] > 100 µM | [6] > 100 µM | [7] > 100 µM | [8] > 100 µM | [9] > 100 µM | [10] > 100 µM | [11] > 100 µM | [13] > 100 µM | [15] > 100 µM | [16] > 100 µM | [17] > 100 µM | [18] > 100 µM

COc1cc(-c2n[nH]cc2CCCC(=O)Nc2ccccc2[N+](=O)[O-])ccc1O
inactive: [1] > 100 µM | [2] 20.8 µM | [3] > 100 µM | [4] 29.6 µM | [5] 79.8 µM | [6] > 100 µM | [7] > 100 µM | [8] 59.3 µM | [9] > 100 µM | [11] > 100 µM | [12] 55.7 µM | [13] > 100 µM | [15] > 100 µM | [16] 45.3 µM | [17] 75.2 µM | [18] 91.8 µM

CN(C)CCn1c2c3ccccc3ccc2c2oc(=O)c3ccccc3c21
inactive: [1] 12.1 µM | [2] 2.3 µM | [3] 19.5 µM | [4] 4.48 µM | [5] 1.61 µM | [6] 12.6 µM | [7] 4.86 µM | [8] 4 µM | [9] 6.3 µM | [10] 4.4 µM | [12] 4.26 µM | [13] 2.71 µM | [15] 5.24 µM | [16] 4.2 µM | [17] 7.46 µM | [18] 5.58 µM
